Results on two molecules are retold here after ChEMBL document CHEMBL4002584, “Synthesis and antibacterial activities of novel pleuromutilin derivatives with a substituted pyrimidine moiety” (2017).

Holding throughout (format): functional
The subject of assay [1] is Staphylococcus aureus. Kind of assay: Antibacterial activity against […] Staphylococcus aureus ATCC 29213 after 24 to 48 hrs by agar dilution method. On the technique in general: In agar dilution the substance is mixed into plates at graded concentrations.
Assay [2] has as its system Staphylococcus aureus. Kind of assay: Antibacterial activity against […] Staphylococcus aureus ATCC 33591 after 24 to 48 hrs by agar dilution method.
Assay [3] has as its system Staphylococcus aureus. Kind of assay: Antibacterial activity against Staphylococcus aureus CMCC (B) 26003 after 24 to 48 hrs by agar dilution method.
For assay [4], the system named is Bacillus subtilis. Kind of assay: Antibacterial activity against Bacillus subtilis CMCC (B) 63501 after 24 to 48 hrs by agar dilution method.
The subject of assay [5] is Escherichia coli. Kind of assay: Antibacterial activity against Escherichia coli CMCC (B) 44102 after 24 to 48 hrs by agar dilution method.
The subject of assay [6] is Staphylococcus aureus. Kind of assay: Antibacterial activity against […] Staphylococcus aureus ATCC 29213 at 320 ug/ml after 24 to 36 hrs by oxford cup assay. Conditions: read-out: DIZ.
For assay [7], the system named is Staphylococcus aureus. Kind of assay: Antibacterial activity against […] Staphylococcus aureus ATCC 29213 at 160 ug/ml after 24 to 36 hrs by oxford cup assay. Conditions: read-out: DIZ.
For assay [8], the system named is Staphylococcus aureus. Kind of assay: Antibacterial activity against […] Staphylococcus aureus ATCC 33591 at 320 ug/ml after 24 to 36 hrs by oxford cup assay. Conditions: read-out: DIZ.
Assay [9] deals with Staphylococcus aureus. Kind of assay: Antibacterial activity against […] Staphylococcus aureus ATCC 33591 at 160 ug/ml after 24 to 36 hrs by oxford cup assay. To be noted: read-out: DIZ.
The subject of assay [10] is Staphylococcus aureus. Kind of assay: Antibacterial activity against Staphylococcus aureus CMCC (B) 26003 at 320 ug/ml after 24 to 36 hrs by oxford cup assay. To be noted: read-out: DIZ.
Assay [11] concerns Staphylococcus aureus. Kind of assay: Antibacterial activity against Staphylococcus aureus CMCC (B) 26003 at 160 ug/ml after 24 to 36 hrs by oxford cup assay. Conditions: read-out: DIZ.
In assay [12] the test system is Bacillus subtilis. Kind of assay: Antibacterial activity against Bacillus subtilis CMCC (B) 63501 at 320 ug/ml after 24 to 36 hrs by oxford cup assay. Conditions: read-out: DIZ.
The test system of assay [13] is Bacillus subtilis. Kind of assay: Antibacterial activity against Bacillus subtilis CMCC (B) 63501 at 160 ug/ml after 24 to 36 hrs by oxford cup assay. To be noted: read-out: DIZ.
The test system of assay [14] is Escherichia coli. Kind of assay: Antibacterial activity against Escherichia coli CMCC (B) 44102 at 320 ug/ml after 24 to 36 hrs by oxford cup assay. To be noted: read-out: DIZ.
Assay [15] relates to Escherichia coli. Kind of assay: Antibacterial activity against Escherichia coli CMCC (B) 44102 at 160 ug/ml after 24 to 36 hrs by oxford cup assay. To be noted: read-out: DIZ.
For assay [16], the system named is Staphylococcus aureus. Kind of assay: Bactericidal activity against Staphylococcus aureus CMCC (B) 26003 after 1 to 24 hrs by time-kill assay.
For assay [17], the system named is Staphylococcus aureus. Kind of assay: Bactericidal activity against Staphylococcus aureus CMCC (B) 26003 at 6 times MIC after 4 hrs by time-kill assay relative to control.
The test system of assay [18] is Staphylococcus aureus. Kind of assay: Bactericidal activity against Staphylococcus aureus CMCC (B) 26003 assessed as bacterial level at MIC after 1 to 24 hrs by time-kill assay.
Assay [19] has as its system Staphylococcus aureus. Kind of assay: Bactericidal activity against […] Staphylococcus aureus ATCC 29213 after 1 to 24 hrs by time-kill assay.
For assay [20], the system named is Staphylococcus aureus. Kind of assay: Ratio of MIC for […] Staphylococcus aureus ATCC 29213 to MIC for Staphylococcus aureus CMCC (B) 26003.
Assay [21] has as its system Staphylococcus aureus. Kind of assay: Antibacterial activity against […] Staphylococcus aureus ATCC 29213 in iv dosed Balb/c mouse systemic infection model assessed as increase in mouse survival after 7 days. Conditions: for ED50: ATCC 29213, iv, 168 h.

Each structure is given as a SMILES string. Converted amounts (≈) assume the structure as drawn.

Take `C=C[C@]1(C)C[C@@H](OC(=O)CSc2nc(N)cc(N)n2)[C@]2(C)[C@H](C)CC[C@]3(CCC(=O)[C@H]32)[C@@H](C)[C@@H]1O`: the minimal inhibitory concentration (MIC) against Staphylococcus aureus [1] came out at 0.125 µg/mL (≈ 0.249 µM); in the assay with Staphylococcus aureus [2], 0.0625 µg/mL (≈ 0.124 µM); in the assay on Staphylococcus aureus [3] it was 0.0625 µg/mL (≈ 0.124 µM); against Bacillus subtilis [4], 2 µg/mL (≈ 3.98 µM); against Escherichia coli [5] it was 2 µg/mL (≈ 3.98 µM). Further, the zone of inhibition at 320 µg/mL worked out at 33.5 mm in the assay on Staphylococcus aureus [6]; 35.8 mm with Staphylococcus aureus [8]; 38.3 mm with Staphylococcus aureus [10]; 21.9 mm with Bacillus subtilis [12]; 14.2 mm in the assay with Escherichia coli [14]. The zone of inhibition at 160 µg/mL was determined as 24.7 mm in the assay on Staphylococcus aureus [7]; 24.2 mm with Staphylococcus aureus [9]; 25.8 mm in the assay with Staphylococcus aureus [11]; 17.4 mm in the assay with Bacillus subtilis [13]; 11.4 mm with Escherichia coli [15]. Moreover, the Activity entry in the assay with Staphylococcus aureus [16] is “Dose-dependent effect”; in the assay with Staphylococcus aureus [18] it was 3 - 4 log10CFU/ml; in the assay with Staphylococcus aureus [19] it was “Dose-dependent effect”; in the assay with Staphylococcus aureus [21] it was “Dose-dependent effect”. Moreover, the “fold change (FC)” value in the assay on Staphylococcus aureus [17] is greater than 6. In the assay on Staphylococcus aureus [20], the Ratio was found to be 2. For the same molecule, in the assay with Staphylococcus aureus [21], the ED50 came out at 4.22 mg/kg.

Consider `C=C[C@]1(C)C[C@@H](OC(=O)CSCCN(CC)CC)[C@]2(C)[C@H](C)CC[C@]3(CCC(=O)[C@H]32)[C@@H](C)[C@@H]1O` [TIAMULIN], for which the MIC worked out at 0.25 µg/mL (≈ 0.506 µM) against Staphylococcus aureus [1]; 0.125 µg/mL (≈ 0.253 µM) with Staphylococcus aureus [2]; 0.0625 µg/mL (≈ 0.127 µM) in the assay on Staphylococcus aureus [3]; 2 µg/mL (≈ 4.05 µM) in the assay with Bacillus subtilis [4]; 4 µg/mL (≈ 8.1 µM) in the assay with Escherichia coli [5]. In addition, the zone of inhibition at 320 µg/mL in the assay with Staphylococcus aureus [6] worked out at 29.4 mm; in the assay on Staphylococcus aureus [8], 33.9 mm; in the assay with Staphylococcus aureus [10] it was 37.9 mm; in the assay with Bacillus subtilis [12], 21.3 mm; with Escherichia coli [14], 13.3 mm. Also, the zone of inhibition at 160 µg/mL worked out at 22.9 mm in the assay on Staphylococcus aureus [7]; 20.2 mm with Staphylococcus aureus [9]; 26.1 mm with Staphylococcus aureus [11]; 17.4 mm in the assay on Bacillus subtilis [13]; 9.42 mm in the assay on Escherichia coli [15]. In addition, the Activity entry was “Dose-dependent effect” in the assay with Staphylococcus aureus [16], 3 - 4 log10CFU/ml in the assay on Staphylococcus aureus [18], “Dose-dependent effect” in the assay on Staphylococcus aureus [19] and “Dose-dependent effect” in the assay on Staphylococcus aureus [21]. In addition, the “fold change (FC)” value with Staphylococcus aureus [17] is greater than 6. For the same molecule, the ED50 with Staphylococcus aureus [21] came to 5.94 mg/kg.

In general, MIC refers to the lowest concentration that inhibits growth of the organism. As usually defined, the ED50 is the dose that gives a 50% effect, or the effect in half of the subjects.
